Values of other authors in PMC3156379 (Bioorganic & medicinal chemistry letters, 2011).

What was measured:
MAG = biological target: T1, MAG (Homo sapiens, UniProt P20916); settings: read-out: Kd for MAG; structures β-linked to synthetic aglycons
T1 sequence (P20916 20-626): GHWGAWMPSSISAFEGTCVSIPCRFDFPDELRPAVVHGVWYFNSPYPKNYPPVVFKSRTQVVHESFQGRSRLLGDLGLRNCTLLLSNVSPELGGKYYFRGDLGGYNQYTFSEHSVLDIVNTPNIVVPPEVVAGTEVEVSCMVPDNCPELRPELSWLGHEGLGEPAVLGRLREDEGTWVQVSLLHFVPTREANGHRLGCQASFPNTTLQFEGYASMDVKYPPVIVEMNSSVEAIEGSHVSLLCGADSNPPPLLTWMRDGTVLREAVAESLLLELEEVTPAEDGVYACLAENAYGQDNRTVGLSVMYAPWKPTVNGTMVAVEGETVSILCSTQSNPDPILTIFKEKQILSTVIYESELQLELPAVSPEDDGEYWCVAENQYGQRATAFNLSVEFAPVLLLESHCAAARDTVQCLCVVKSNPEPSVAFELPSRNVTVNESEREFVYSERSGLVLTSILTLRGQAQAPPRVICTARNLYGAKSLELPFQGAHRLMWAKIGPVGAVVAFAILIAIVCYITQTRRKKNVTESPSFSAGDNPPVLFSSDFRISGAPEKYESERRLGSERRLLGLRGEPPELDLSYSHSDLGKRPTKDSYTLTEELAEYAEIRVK

[1] = tested on: MAG inhibition of neurite outgrowth; settings: in vitro cell culture model

SMILES: CC(=O)N[C@H]1[C@H](OCC[Si](C)(C)C)O[C@H](CO[C@]2(C(=O)O)C[C@H](O)[C@@H](NC(C)=O)[C@H]([C@H](O)[C@H](O)CO)O2)[C@H](O)[C@@H]1O[C@@H]1O[C@H](CO)[C@H](O)[C@H](O[C@]2(C(=O)O)C[C@H](O)[C@@H](NC(C)=O)[C@H]([C@H](O)[C@H](O)CO)O2)[C@H]1O [Compound 1]
- Kd (MAG): 820 µM

SMILES: COC(=O)[C@@H](NC(C)=O)[C@@H](C)O[C@H]1O[C@H](CO)[C@H](O)[C@H](O[C@@H]2O[C@H](CO)[C@H](O)[C@H](O[C@]3(C(=O)[O-])C[C@H](O)[C@@H](NC(C)=O)[C@H]([C@H](O)[C@H](O)CO)O3)[C@H]2O)[C@H]1NC(C)=O.[Na+] [Compound 11a, sialyl-T-antigen]
- reversing MAG inhibition of neurite outgrowth [1]: exhibited activity for reversing MAG inhibition of neurite outgrowth
